Experimental data as given in patent US20180317484A1 (priority 2017, published 2018).

Test system: Aspergillus flavus
Experiment: microbe, parasite or virus in culture
Format: cell-based

Row | SMILES | effect on growth of the fungi, in words | inhibition at 50 µg/mL (Aspergillus flavus, 168 h, read-out: percentage of inhibition of growth of the fungi (Aspergillus flavus)) [%]
1 | O=[N+]([O-])c1ccc2nc(-c3ccco3)[nH]c2c1 [6-NFBD, 2-(2-Furyl)-6-nitrobenzimidazole] | does not inhibit the growth | 
2 | c1coc(-c2nc3ccccc3[nH]2)c1 [FBD, 2-(2-Furyl)benzimidazole] |  | 100
3 | O=C(O)c1ccc2nc(-c3ccco3)[nH]c2c1 [6-CAFBD, 2-(2-Furyl) benzimidazole-6-carboxylic acid] | does not inhibit the growth | 
4 | NC(=NO)c1ccc2nc(-c3ccco3)[nH]c2c1 [6-AFBD, 2-(2-Furyl) benzimidazole-6-carboxamidoxime] | does not inhibit the growth | 
